# Data reported in PubChem BioAssay AID192 (DTP/NCI, 2004).
# “And” between values parts separate entries of the source, which are not always exact repeats. Identical values can stand only once. Toxic doses and inconclusive results are not listed.
# System: BDF1 mice, B16 melanoma ip, median survival T/C
# Assay: NCI In Vivo Anticancer Drug Screen. Data for tumor model B16 Melanoma (intraperitoneal) in B6D2F1 (BDF1) mice
# Conditions: endpoint: median survival time, higher = longer survival
# How it was run: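 Transplantable tumor model; survival or tumor size measured; reported as T/C, treated over vehicle control.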
# [1] = dose: 50.0 mg/kg/injection, schedule: Q04DX003 (ip), vehicle: Klucel (hydroxypropylcellulose) (HPC)
# [2] = dose: 100.0 mg/kg/injection, schedule: Q04DX003 (ip), vehicle: Klucel (hydroxypropylcellulose) (HPC)
# [3] = dose: 200.0 mg/kg/injection, schedule: Q04DX003 (ip), vehicle: Klucel (hydroxypropylcellulose) (HPC)
# [4] = dose: 25.0 mg/kg/injection, schedule: Q01DX009 (ip), vehicle: saline with Tween-80
# [5] = dose: 50.0 mg/kg/injection, schedule: Q01DX009 (ip), vehicle: saline with Tween-80
# [6] = dose: 100.0 mg/kg/injection, schedule: Q01DX009 (ip), vehicle: saline with Tween-80
# [7] = dose: 200.0 mg/kg/injection, schedule: Q01DX009 (ip), vehicle: saline with Tween-80
# [8] = dose: 400.0 mg/kg/injection, schedule: Q04DX003 (ip), vehicle: Klucel (hydroxypropylcellulose) (HPC)
smiles,measurement,setting,value
O=C(N/N=C/c1ccc(N(CCCl)CCCl)cc1)c1ccc(C(=O)N/N=C/c2ccc(N(CCCl)CCCl)cc2)cc1,T/C,"dose: 25.0 mg/kg/injection, schedule: Q04DX003 (ip), vehicle: Klucel (hydroxypropylcellulose) (HPC)",97 % of control
same,T/C,[1],90 % of control and 100 % of control
same,T/C,[2],97 % of control
same,T/C,[3],90 % of control and 95 % of control
O=S(=O)(c1ccccc1)N1CN2CCN(C2)C1,T/C,"dose: 12.5 mg/kg/injection, schedule: Q01DX009 (ip), vehicle: saline with Tween-80",89 % of control
same,T/C,[4],98 % of control
same,T/C,[5],99 % of control
same,T/C,[6],100 % of control
same,T/C,[7],103 % of control
Cc1cccc(NC(=O)Nc2ccc(Cl)cc2)c1C,T/C,"dose: 100.0 mg/kg/injection, schedule: Q01DX009 (ip), vehicle: gum acacia",112 % of control
same,T/C,"dose: 200.0 mg/kg/injection, schedule: Q01DX009 (ip), vehicle: gum acacia",107 % of control
CCN(CC)C1CC(O[C@H]2C[C@](O)(C(C)=O)Cc3c(O)c4c(c(O)c32)C(=O)c2c(OC)cccc2C4=O)OC(C)C1O (stereo partly specified),T/C,"dose: 0.25 mg/kg/injection, schedule: Q01DX009 (ip), vehicle: water",113 % of control
same,T/C,"dose: 0.5 mg/kg/injection, schedule: Q01DX009 (ip), vehicle: water",119 % of control
O=[N+]([O-])c1ccc(NCc2ccccc2)nc1,T/C,[4],100 % of control
same,T/C,[5],100 % of control
same,T/C,[6],121 % of control
same,T/C,[7],105 % of control
C/C(=C\c1ccc(C)cc1)[N+](=O)[O-],T/C,[4],89 % of control
same,T/C,[5],96 % of control
CC(=O)NNC(=O)c1ccccn1,T/C,[4],87 % of control
same,T/C,"dose: 25.0 mg/kg/injection, schedule: Q01DX009 (ip), vehicle: water",93 % of control and 116 % of control
same,T/C,"dose: 50.0 mg/kg/injection, schedule: Q01DX009 (ip), vehicle: water",110 % of control and 113 % of control
same,T/C,"dose: 100.0 mg/kg/injection, schedule: Q01DX009 (ip), vehicle: water",93 % of control and 100 % of control
same,T/C,[7],89 % of control
O=NN(CCCl)C(=O)NC1OC(CO)C(O)C(O)C1O (stereo unspecified),T/C,"dose: 0.16 mg/kg/injection, schedule: Q01DX009 (ip), vehicle: saline",107 % of control
same,T/C,"dose: 0.31 mg/kg/injection, schedule: Q01DX009 (ip), vehicle: saline",111 % of control and 116 % of control
same,T/C,"dose: 0.62 mg/kg/injection, schedule: Q01DX009 (ip), vehicle: saline",108 % of control
same,T/C,"dose: 1.25 mg/kg/injection, schedule: Q01DX009 (ip), vehicle: saline",178 % of control
same,T/C,"dose: 2.5 mg/kg/injection, schedule: Q01DX009 (ip), vehicle: saline",188 % of control
same,T/C,"dose: 5.0 mg/kg/injection, schedule: Q01DX009 (ip), vehicle: saline",193 % of control
CCCN(C(=O)CCl)c1ccccc1,T/C,"dose: 3.13 mg/kg/injection, schedule: Q01DX009 (ip), vehicle: Klucel (hydroxypropylcellulose) (HPC)",94 % of control
same,T/C,"dose: 6.25 mg/kg/injection, schedule: Q01DX009 (ip), vehicle: Klucel (hydroxypropylcellulose) (HPC)",91 % of control
same,T/C,"dose: 12.5 mg/kg/injection, schedule: Q01DX009 (ip), vehicle: Klucel (hydroxypropylcellulose) (HPC)",92 % of control
O=C(C=P(c1ccccc1)(c1ccccc1)c1ccccc1)c1ccccc1,T/C,"dose: 100.0 mg/kg/injection, schedule: Q04DX003 (ip), vehicle: saline with Tween-80",102 % of control
same,T/C,"dose: 200.0 mg/kg/injection, schedule: Q04DX003 (ip), vehicle: saline with Tween-80",102 % of control
same,T/C,"dose: 400.0 mg/kg/injection, schedule: Q04DX003 (ip), vehicle: saline with Tween-80",102 % of control
Cc1ccc(C(=O)C(c2ccccc2)C(Cl)c2ccccc2)cc1 (stereo unspecified),T/C,[2],102 % of control
same,T/C,[3],103 % of control
same,T/C,[8],103 % of control
CCCCC(=O)OCC1OC(n2cnc3c(=S)nc[nH]c32)C(OC(=O)CCCC)C1OC(=O)CCCC (stereo unspecified),T/C,[4],119 % of control
OCC1OC(n2cnc3c(NO)ncnc32)C(O)C1O (stereo unspecified),T/C,"dose: 200.0 mg/kg/injection, schedule: Q01DX009 (ip), vehicle: Klucel (hydroxypropylcellulose) (HPC)",109 % of control
same,T/C,"dose: 400.0 mg/kg/injection, schedule: Q01DX009 (ip), vehicle: Klucel (hydroxypropylcellulose) (HPC)",111 % of control
COc1ccc(/C(C)=N\NC(=O)c2ccccc2)cc1,T/C,[1],95 % of control
same,T/C,[2],102 % of control
same,T/C,[3],87 % of control
COC(=O)C(CSCc1ccccc1)NC(=O)CCNC(=O)OCc1ccccc1 (stereo unspecified),T/C,"dose: 25.0 mg/kg/injection, schedule: Q01DX009 (ip), vehicle: other",107 % of control
same,T/C,"dose: 50.0 mg/kg/injection, schedule: Q01DX009 (ip), vehicle: other",92 % of control
same,T/C,"dose: 100.0 mg/kg/injection, schedule: Q01DX009 (ip), vehicle: other",97 % of control
same,T/C,"dose: 200.0 mg/kg/injection, schedule: Q01DX009 (ip), vehicle: other",93 % of control
CC[C@@]1(O)C(=O)OCc2c1cc1n(c2=O)Cc2cc3cc(OC)ccc3nc2-1,T/C,"dose: 0.39 mg/kg/injection, schedule: Q01DX009 (ip), vehicle: other",157 % of control
same,T/C,"dose: 0.79 mg/kg/injection, schedule: Q01DX009 (ip), vehicle: other",174 % of control
COc1ccc(NC(=O)O/N=C2\CN(S(=O)(=O)c3ccc(C)cc3)CCc3ccccc32)cc1,T/C,[2],102 % of control
same,T/C,[3],97 % of control
same,T/C,[8],88 % of control
CCCCCCCCCCCCCCCCCCNC(=O)Oc1ccc(Cl)c(C)c1,T/C,"dose: 100.0 mg/kg/injection, schedule: Q04DX003 (ip), vehicle: gum acacia",88 % of control
same,T/C,"dose: 200.0 mg/kg/injection, schedule: Q04DX003 (ip), vehicle: gum acacia",90 % of control
C=C1C(=O)C2(C)OC2(C)C1C(=O)O (stereo unspecified),T/C,"dose: 1.25 mg/kg/injection, schedule: Q01DX009 (ip), vehicle: Klucel (hydroxypropylcellulose) (HPC)",109 % of control
same,T/C,"dose: 2.5 mg/kg/injection, schedule: Q01DX009 (ip), vehicle: Klucel (hydroxypropylcellulose) (HPC)",105 % of control
same,T/C,"dose: 5.0 mg/kg/injection, schedule: Q01DX009 (ip), vehicle: Klucel (hydroxypropylcellulose) (HPC)",99 % of control
same,T/C,"dose: 10.0 mg/kg/injection, schedule: Q01DX009 (ip), vehicle: Klucel (hydroxypropylcellulose) (HPC)",93 % of control
CCCCCCCCCCCCCCCCCC[N+](C)(C)C (tested in a mixture with another compound),T/C,"dose: 0.1 mg/kg/injection, schedule: Q01DX009 (ip), vehicle: saline sonified",90 % of control
same,T/C,"dose: 2.0 mg/kg/injection, schedule: Q01DX009 (ip), vehicle: saline sonified",86 % of control
same,T/C,"dose: 4.0 mg/kg/injection, schedule: Q01DX009 (ip), vehicle: saline sonified",86 % of control
Cn1c[n+](C)cc1C(=O)[O-],T/C,"dose: 100.0 mg/kg/injection, schedule: Q01DX009 (ip), vehicle: saline",115 % of control
same,T/C,"dose: 200.0 mg/kg/injection, schedule: Q01DX009 (ip), vehicle: saline",115 % of control
same,T/C,"dose: 400.0 mg/kg/injection, schedule: Q01DX009 (ip), vehicle: saline",109 % of control
